Measurements taken from patent publication US11918693B2, “Ibuprofen and acetaminophen tablet” (GlaxoSmithKline Consumer Healthcare Holdings (US) LLC, priority 2019, dated 2024).

Tested on: patients with at least moderate pain after extraction of 3 third molar teeth
Assay: Study 1: phase 2 single-dose dental pain study, analgesic efficacy and tolerability of 3 FDCs of IBU/APAP vs IBU 400 mg and placebo
Format: in vivo, human
Conditions: single oral dose, IBU dose 400 mg
Method: Study 1 was a phase 2, 12-hour, 5-arm, randomized, double-blind, parallel group, in-patient, placebo-controlled study designed to determine the overall analgesic efficacy of 3 different FDCs of IBU/APAP compared with IBU 400 mg and placebo.
All study procedures were in compliance with the ethical principles originating in or derived from the Declaration of Helsinki and with all International Council for Harmonization Good Clinical Practice Guidelines, as well as local regulatory requirements. All patients provided written informed consent. Eligible patients were healthy males or females aged 16-40 years, inclusive, who had undergone extraction of 3 third molar teeth (with at least 2 having been partial or complete bony mandibular impactions) and had developed at least moderate pain within 5 hours of the oral surgery. Other entry criteria included: use of only the following preoperative medications/anesthetics: topical benzocaine, a short-acting parenteral local anesthetic (mepivacaine or lidocaine) with or without a vasoconstrictor and/or nitrous oxide; no contraindications to the study or rescue medications; and being sufficiently reliable, cooperative, and intelligent to record the requested information on the analgesic questionnaire form.
Upon experiencing at least moderate pain, patients were randomized 1:3:3:3:3 to receive a single oral dose of placebo; IBU 400 mg; FDC IBU/APAP 200 mg/500 mg; FDC IBU/APAP 250 mg/500 mg; or FDC IBU/APAP 300 mg/500 mg.
Patients could receive 2 additional doses of rescue medication at the study center. Patients were permitted to take rescue medication at any time but were encouraged to wait at least 1 hour after taking study medication to allow time for the medication to exert its effect. Patients who took rescue medication remained at the study site for the full duration of the study and continued to perform assessments.
At baseline, patients rated their pain severity using a categorical and a numerical pain severity rating (PSR) scale. The categorical PSR was a 4-point scale (none, mild, moderate, severe), with each category assigned a value from 0-3, respectively. The achievement of moderate pain at baseline was confirmed by a score of >50 mm on a 100-mm visual analog pain scale. Additionally, pain was assessed using an 11-point numerical PSR (0-10; 0=none to 10=worst possible pain).
Following the administration of study medication, patients were followed and evaluated on site for 12 hours. During that time, study participants provided self-ratings of pain severity (on both categorical and numerical PSR scales as described above) and pain relief: using a 5-point categorical pain relief rating (PRR) scale (0=none, 1=a little, 2=some, 3=a lot, and 4=complete) at 0.25, 0.5, 1, 1.5, 2, 3, 4, 5, 6, 7, 8, 9, 10, 11, and 12 hours post-treatment, after taking study medication, immediately before taking rescue medication, or at time of study withdrawal (if either occurred).
Additional patient assessments included time to first perceptible relief (TFPR) and time to meaningful pain relief (TMPR) using the double-stopwatch method, in which the first stopwatch was pressed by the patient when pain relief was first perceived, and the second when that relief became meaningful. Duration of pain relief was measured by the time to treatment failure (i.e., the time of first dose of rescue medication or dropout due to lack of efficacy). At 12 hours or immediately before taking rescue medication for the first time, patients also provided a Patient Global Evaluation based on a 6-point categorical scale ranging from 0 (very poor) to 5 (excellent).
The primary endpoint was the time-weighted sum of pain relief and pain intensity difference (PID) scores from baseline (time 0) through 8 hours (SPRID[4]0-8) after dosing based on PRR and categorical PSR. […]

CC(C)Cc1ccc(C(C)C(=O)O)cc1 (centres unmarked) [IBU, 2-(4-isobutylphenyl) propionic acid]
Alveolar osteitis, treatment-emergent adverse event, %: (2.2) %
Dizziness, treatment-emergent adverse event, %: (7.6) %
Feeling hot, treatment-emergent adverse event, %: (4.3) %
Median time to first perceptible relief (TFPR): 24.9 min
Median time to meaningful relief (TMPR): 56.2 min
Median time to treatment failure (duration of relief): 10.4 h
Nausea, treatment-emergent adverse event, %: (23.9) %
TOTPAR0-2, mean (time-weighted sum of pain relief rating scores over 0-2 hours): 4.0
Tension headache, treatment-emergent adverse event, %: (4.3) %
Tremor, treatment-emergent adverse event, %: (2.2) %
Vomiting, treatment-emergent adverse event, %: (15.2) %
TOTPAR0-6, mean (0-6 hours): 14.3
TOTPAR0-8, mean (0-8 hours): 18.4
TOTPAR0-12, mean (0-12 hours): 23.9
